The values that follow come from US20110201628A1, “HETEROCYCLIC JAK KINASE INHIBITORS” (priority 2008, published 2011).

Like-named read-outs stand apart in the source and are kept apart here.

The term IC50 denotes the concentration needed to halve the response being measured.

Assay [1] concerns the target T1, N-terminal GST-tagged, recombinant, human JAK2 (amino acids 831-1132) (Homo sapiens, UniProt O60674).
T1 construct: human JAK2 (amino acids 831-1132, PLAZA database pAZB0359); GST (N); host or cells: insect cells
The assay can be described thus: JAK2 mobility shift assay on Caliper LC3000 (Method 2). It counts as biochemical. To be noted: 0.3 nM JAK2 enzyme, 5 mM ATP, 1.5 μM SRCtide, 90 minutes room temperature. As for the experimental part:
Janus kinase 2 (JAK2) activity was also determined by measuring the kinase's ability to phosphorylate a tyrosine residue within a peptide substrate using a mobility shift assay on a Caliper LC3000 reader (Caliper, Hopkinton, Mass.), which measures fluorescence of the phosphorylated and unphosphorylated substrate and calculates a ratiometric value to determine percent turnover.
To measure JAK2 kinase activity, an in-house purified enzyme was used. […] After incubation of the kinase with a FAM labeled SRCtide substrate, adenosine triphosphate (ATP), and MgCl2 for 90 minutes at room temperature, the kinase reaction was stopped by the addition of 36 mM ethylenediaminetetraacetic acid (EDTA). The reaction was performed in 384 well microtitre plates and the reaction products were detected using the Caliper LC3000 Reader.

For assay [2], the target named is T2, C-terminal His6-tagged, recombinant, human JAK2, amino acids 808-end (Homo sapiens, UniProt O60674).
T2 construct: His6 (C); purchased Upstate Biotechnology MA; host or cells: baculovirus in Sf21 cells
T2 sequence (O60674 808-1132 limits assumed): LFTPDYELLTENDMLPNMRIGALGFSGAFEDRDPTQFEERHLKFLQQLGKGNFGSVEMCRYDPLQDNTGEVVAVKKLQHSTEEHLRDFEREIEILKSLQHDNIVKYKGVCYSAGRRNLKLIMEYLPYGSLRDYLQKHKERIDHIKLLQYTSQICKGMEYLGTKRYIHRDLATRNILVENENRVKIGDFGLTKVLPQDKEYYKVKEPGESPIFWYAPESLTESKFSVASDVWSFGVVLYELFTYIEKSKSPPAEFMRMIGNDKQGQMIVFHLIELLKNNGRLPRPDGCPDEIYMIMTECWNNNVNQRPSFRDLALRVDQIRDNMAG
The assay can be described thus: JAK2 kinase Alphascreen assay (Method 1). Type of assay: biochemical. As for the experimental part:
To measure JAK2 kinase activity, a commercially available purified enzyme may be used. […] After incubation of the kinase with a biotinylated substrate and adenosine triphosphate (ATP) for 60 minutes at room temperature, the kinase reaction may be stopped by the addition of 30 mM ethylenediaminetetraacetic acid (EDTA). The reaction may be performed in 384 well microtitre plates and the reaction products may be detected with the addition of streptavidin coated Donor Beads and phosphotyrosine-specific antibodies coated Acceptor Beads using the EnVision Multilabel Plate Reader after an overnight incubation at room temperature. “Tween 20” is a registered trademark of ICI Americas, Inc.
(In general: Alpha assays give light when donor and acceptor beads are brought close together.)

[3] abbreviates: Alphascreen, 150 pM JAK2 enzyme, 5 mM ATP, 80 nM Tyk2 peptide, 60 minutes room temperature, read-out: IC50 Assay (Method 1).

T1 sequence (O60674 831-1132): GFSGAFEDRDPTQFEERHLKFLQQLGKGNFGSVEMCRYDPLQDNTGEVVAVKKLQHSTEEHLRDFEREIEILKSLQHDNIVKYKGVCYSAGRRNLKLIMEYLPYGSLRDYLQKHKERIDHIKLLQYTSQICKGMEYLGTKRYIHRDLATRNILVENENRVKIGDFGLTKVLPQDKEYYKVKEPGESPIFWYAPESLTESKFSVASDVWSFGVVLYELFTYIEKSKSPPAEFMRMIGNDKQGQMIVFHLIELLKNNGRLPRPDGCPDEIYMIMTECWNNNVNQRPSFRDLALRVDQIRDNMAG

Take `CC(Nc1nc(Nc2cn(C)cn2)c2cc(F)cnc2n1)c1ncc(F)cc1F` (single isomer, unassigned) [Example 31(a), N^2-[1-(3,5-Difluoropyridin-2-yl)ethyl]-6-fluoro-N^4-(1-methyl-1H-imidazol-4-yl)pyrido[2,3-d]pyrimidine-2,4-diamine]: in assay [1], the IC50 was determined as 80 nM. For `CC(Nc1nc(Nc2cn(C)cn2)c2ccn(C3CC3)c2n1)c1ncc(F)cn1` (single isomer, unassigned) [Example 24(b), 7-Cyclopropyl-N^2-[1-(5-fluoropyrimidin-2-yl)ethyl]-N^4-(1-methyl-1H-imidazol-4-yl)-7H-pyrrolo[2,3-d]pyrimidine-2,4-diamine], in assay [1], the IC50 came to 27 nM. On the same count and under the same terms, for `COc1cnc(C(C)Nc2nc(Nc3cn(C)cn3)c3cc[nH]c3n2)nc1` (single isomer, unassigned) [Example 27(a), N^2-[1-(5-Methoxypyrimidin-2-yl)ethyl]-N^4-(1-methyl-1H-imidazol-4-yl)-7H-pyrrolo[2,3-d]pyrimidine-2,4-diamine] the value was 17600 nM. In the case of `CC(Nc1nc(Nc2cn(C)cn2)c2ccc(C(F)(F)F)nc2n1)c1ncc(F)cc1F` (racemic) [Example 33, N^2-[1-(3,5-Difluoropyridin-2-yl)ethyl]-N^4-(1-methyl-1H-imidazol-4-yl)-7-(trifluoromethyl)pyrido[2,3-d]pyrimidine-2,4-diamine], the IC50 in assay [1] amounted to 26 nM. As to `Cc1cc2c(Nc3cn(C)cn3)nc(N[C@@H](C)c3ncc(F)cn3)nc2[nH]1` [Example 20, N^2-[(1S)-1-(5-Fluoropyrimidin-2-yl)ethyl]-6-methyl-N^4-(1-methyl-1H-imidazol-4-yl)-7H-pyrrolo[2,3-d]pyrimidine-2,4-diamine], the IC50 in assay [1] was 13 nM.

With `C[C@H](Nc1nc(Nc2cn(C)cn2)c2ccc(C(F)(F)F)nc2n1)c1ncc(F)cn1` [Example 32, N^2-[(1S)-1-(5-Fluoropyrimidin-2-yl)ethyl]-N^4-(1-methyl-1H-imidazol-4-yl)-7-(trifluoromethyl)pyrido[2,3-d]pyrimidine-2,4-diamine], in assay [1], the IC50 stood at 35 nM. `COc1cnc(C(C)Nc2nc(Nc3cn(C)cn3)c3cc[nH]c3n2)nc1` (racemic) [Example 27, N^2-[1-(5-Methoxypyrimidin-2-yl)ethyl]-N^4-(1-methyl-1H-imidazol-4-yl)-7H-pyrrolo[2,3-d]pyrimidine-2,4-diamine]: the IC50 in assay [1] is 270 nM. With `CC(Nc1nc(Nc2cn(C)cn2)c2ccn(CCF)c2n1)c1ncc(F)cn1` (single isomer, unassigned) [Example 22(a), 7-(2-Fluoroethyl)-N^2-[1-(5-fluoropyrimidin-2-yl)ethyl]-N^4-(1-methyl-1H-imidazol-4-yl)-7H-pyrrolo[2,3-d]pyrimidine-2,4-diamine], the IC50 in assay [1] worked out at 2320 nM. For the compound `CCn1ncc2c(Nc3cn(C)cn3)nc(NC(C)c3ncc(F)cn3)nc21` (single isomer, unassigned) [Example 9(b), 1-Ethyl-N^6-[1-(5-fluoropyrimidin-2-yl)ethyl]-N^4-(1-methyl-1H-imidazol-4-yl)-1H-pyrazolo[3,4-d]pyrimidine-4,6-diamine], in assay [1], the IC50 turned out to be 40 nM. In the case of `C[C@H](Nc1nc(Nc2cn(C)cn2)c2cc(C(F)(F)F)[nH]c2n1)c1ncc(F)cn1` [Example 19, N^2-[(1S)-1-(5-Fluoropyrimidin-2-yl)ethyl]-N^4-(1-methyl-1H-imidazol-4-yl)-6-(trifluoromethyl)-7H-pyrrolo[2,3-d]pyrimidine-2,4-diamine], the IC50 in assay [1] is 13 nM. For `C[C@H](Nc1ccc2c(Nc3cn(C)cn3)nc(N[C@@H](C)c3ncc(F)cn3)nc2n1)c1ncc(F)cn1` [Example 39, N^2,N^7-bis[(1S)-1-(5-fluoropyrimidin-2-yl)ethyl]-N^4-(1-methyl-1H-imidazol-4-yl)pyrido[2,3-d]pyrimidine-2,4,7-triamine], the half-maximal inhibitory concentration (IC50) in assay [2] (setting [3]) was determined as 3 nM. Turning to `COCC(Nc1nc(Nc2cn(C)cn2)c2cnn(C)c2n1)c1ncc(F)cc1F` (single isomer, unassigned) [Example 13(b), N^6-[1-(3,5-Difluoropyridin-2-yl)-2-methoxyethyl]-1-methyl-N^4-(1-methyl-1H-imidazol-4-yl)-1H-pyrazolo[3,4-d]pyrimidine-4,6-diamine], the IC50 in assay [2] (setting [3]) is less than 3 nM. Turning to `CC(Nc1nc(Nc2cn(C)cn2)c2ccc(N3CCOCC3)nc2n1)c1ncc(F)cc1F` (single isomer, unassigned) [Example 40(b), N^2-[1-(3,5-Difluoropyridin-2-yl)ethyl]-N^4-(1-methyl-1H-imidazol-4-yl)-7-morpholin-4-ylpyrido[2,3-d]pyrimidine-2,4-diamine], in assay [2] (setting [3]), the half-inhibitory concentration (IC50) was less than 3 nM. On the same count and under the same terms, for `CC(Nc1nc(Nc2cn(C)cn2)c2ccn(C)c2n1)c1ncc(F)cn1` (single isomer, unassigned) [Example 23(a), N^2-[1-(5-Fluoropyrimidin-2-yl)ethyl]-7-methyl-N^4-(1-methyl-1H-imidazol-4-yl)-7H-pyrrolo[2,3-d]pyrimidine-2,4-diamine] the value was less than 3 nM; for `CC(Nc1nc(Nc2cn(C)cn2)c2ccncc2n1)c1ncc(F)cc1F` (single isomer, unassigned) [Example 43(a), N^2-[1-(3,5-Difluoropyridin-2-yl)ethyl]-N^4-(1-methyl-1H-imidazol-4-yl)pyrido[3,4-d]pyrimidine-2,4-diamine], less than 3 nM.

For `CC(Nc1nc2c(c(Nc3cn(C)cn3)n1)CCC2)c1ncc(F)cn1` (single isomer, unassigned) [Example 8(b), N^2-[1-(5-Fluoropyrimidin-2-yl)ethyl]-N^4-(1-methyl-1H-imidazol-4-yl)-6,7-dihydro-5H-cyclopenta[d]pyrimidine-2,4-diamine], the IC50 in assay [2] (setting [3]) was less than 3 nM. `CC(Nc1nc(Nc2cn(C)cn2)c2cc(F)cnc2n1)c1ncc(F)cn1` (single isomer, unassigned) [Example 38(b), 6-Fluoro-N^2-[1-(5-fluoropyrimidin-2-yl)ethyl]-N^4-(1-methyl-1H-imidazol-4-yl)pyrido[2,3-d]pyrimidine-2,4-diamine]: the IC50 in assay [2] (IC50 Assay (Method 1)) is 490 nM.

Turning to `Cc1nc2c(Nc3cn(C)cn3)nc(NC(C)c3ncc(F)cn3)nc2s1` (single isomer, unassigned) [Example 7(a), N^5-[1-(5-Fluoropyrimidin-2-yl)ethyl]-2-methyl-N^7-(1-methyl-1H-imidazol-4-yl)[1,3]thiazolo[5,4-d]pyrimidine-5,7-diamine], in assay [2] (setting [3]), the half-inhibitory concentration (IC50) was found to be 570 nM. On the same count and under the same terms, to `C[C@H](Nc1nc(Nc2cn(C)cn2)c2cn[nH]c2n1)c1ncc(F)cn1` [Example 46, N^6-[(1S)-1-(5-Fluoropyrimidin-2-yl)ethyl]-N^4-(1-methyl-1H-imidazol-4-yl)-1H-pyrazolo[3,4-d]pyrimidine-4,6-diamine] belongs 21 nM; to `C[C@H](Nc1nc(Nc2cn(C)cn2)c2cccnc2n1)c1ncc(F)cn1` [Example 16, N^2-[(1S)-1-(5-Fluoropyrimidin-2-yl)ethyl]-N^4-(1-methyl-1H-imidazol-4-yl)pyrido[2,3-d]pyrimidine-2,4-diamine], less than 3 nM; to `CC(Nc1nc(Nc2cn(C)cn2)c2cnn(C)c2n1)c1ncc(F)cc1F` (single isomer, unassigned) [Example 14(b), N^6-[1-(3,5-Difluoropyridin-2-yl)ethyl]-1-methyl-N^4-(1-methyl-1H-imidazol-4-yl)-1H-pyrazolo[3,4-d]pyrimidine-4,6-diamine], less than 3 nM. For the compound `CC(Nc1nc2c(c(Nc3cn(C)cn3)n1)CNCC2)c1ncc(F)cn1` (single isomer, unassigned) [17(b), N^2-[1-(5-Fluoropyrimidin-2-yl)ethyl]-N^4-(1-methyl-1H-imidazol-4-yl)-5,6,7,8-tetrahydropyrido[4,3-d]pyrimidine-2,4-diamine], the IC50 in assay [2] (setting [3]) was 2000 nM. `COc1ccc2nc(N[C@@H](C)c3ncc(F)cn3)nc(Nc3cn(C)cn3)c2c1` [Example 28, N^2-[(1S)-1-(5-Fluoropyrimidin-2-yl)ethyl]-6-methoxy-N^4-(1-methyl-1H-imidazol-4-yl)quinazoline-2,4-diamine]: in assay [2] (setting [3]), the IC50 came out at 670 nM. On to `CC(Nc1nc(Nc2cn(C)cn2)c2cnn(C)c2n1)c1ncc(F)cn1` (single isomer, unassigned) [Example 11(b), N^6-[1-(5-Fluoropyrimidin-2-yl)ethyl]1-methyl-N^4-(1-methyl-1H-imidazol-4-yl)-1H-pyrazolo[3,4-d]pyrimidine-4,6-diamine], for which the IC50 in assay [2] (setting [3]) was less than 3 nM. Regarding `CC(Nc1nc(Nc2cn(C)cn2)c2ccncc2n1)c1ncc(F)cc1F` (single isomer, unassigned) [Example 43(b), N^2-[1-(3,5-Difluoropyridin-2-yl)ethyl]-N^4-(1-methyl-1H-imidazol-4-yl)pyrido[3,4-d]pyrimidine-2,4-diamine], the IC50 in assay [2] (setting [3]) amounted to 1180 nM. As to `COc1ccc2c(Nc3cn(C)cn3)nc(N[C@@H](C)c3ncc(F)cn3)nc2c1` [Example 30, N^2-[(1S)-1-(5-Fluoropyrimidin-2-yl)ethyl]-7-methoxy-N^4-(1-methyl-1H-imidazol-4-yl)quinazoline-2,4-diamine], the IC50 in assay [2] (setting [3]) stood at 4 nM.
